From US20170100367A1, “USE OF ERIBULIN IN THE TREATMENT OF CANCER” (priority 2014, published 2017)

Assays:
[1] = Pharmacokinetics study of carboplatin in tumor after administration of eribulin in MDA-MB-231 s.c. xenograft model; format: in vivo, nude mice; conditions: for Concentration of Carboplatin in MDA-MB-231 Tumor, AUC (0-8): tumor homogenate
Description: Pharmacokinetics Study of Carboplatin in Tumor after Administration of Eribulin in Human Breast Cancer Cell Line MDA-MB-231 s.c. Xenograft Models
Female nude mice, once acclimatised, were subcutaneously injected with 5×10^6 MDA-MB-231 cells in a 1:1 ratio (50 μL each) with matrigel in a volume of 0.1 mL in phosphate buffered saline, on the right flank area using a 26-gauge needle. This ensured that sufficient mice with tumors in the volume range of approximately 200˜300 mm^3 were available for the study. When the tumors reached an average size of approximately 250 mm^3, 30 mice were selected. The study included an initial experiment containing 24 mice. The first group received eribulin mesylate dosed i.v. as a single dose of 3 mg/kg; for a 20 g animal 200 μL of 0.3 mg/mL eribulin mesylate solution was dosed. To control for tumor size, a vehicle control group (vehicle B) consisting of 27 mice, was introduced before carboplatin dosing. The mice in this group were chosen so that their tumor size matches the tumor size of the eribulin mesylate-treated mice group. Vehicle B group was split in 2 groups, first one of 3 mice which received vehicle (saline) i.v. injection and the second group of 24 mice received carboplatin i.v. injection. On day 1 of vehicle B or on day 15 after the treatment of eribulin, 100 mg/kg carboplatin was administered to all mice intravenously and tumor samples were collected under anesthesia at the assigned time points 0.083, 0.25, 0.5, 1, 4, 8, 24, and 48 hours (n=3 for each time point). Tumors were homogenized with 3 times their respective weights of 1×PBS using a Mini Bead Beater-96, and the concentration of carboplatin in each tumor homogenate was analyzed by a validated LC-MS method.
The PK parameters of carboplatin in tumors were calculated using a non-compartmental approach (Pheonix/WinNonlin v. 6.3, Pharsight; Mountain View, Calif.). The time point at which the concentration of carboplatin highest was denoted as tmax. The highest concentration of carboplatin was denoted as Cmax. The observed area under the tumor concentration versus time curve from time zero to the last quantifiable time point (AUC (0-t)) and to infinity (AUC (0-inf)) were calculated using the trapezoidal method. The AUC (0-inf) was calculated as AUC (0-t)+AUC extrap, where AUC extrap represents the extrapolated AUC from the last quantifiable time point (Clast) to infinity, and was calculated as Clast/λZ. Lamda z (λZ), slope of the concentration versus time curve during the terminal phase, was determined by linear regression.
The mean, standard deviation (SD) and percent coefficient of variation (% CV) of tumor concentrations were calculated using Excel 2010 (Microsoft, Redmond, Wash.). The mean, SD, and % CV for the PK parameters of carboplatin were determined in WinNonlin or Excel 2010. […]
An AB Sciex (Foster City, Calif.) API5000 mass spectrometer, with electrospray ionization under positive ion mode, was used for sample analysis. The collision-activated dissociation (CAD) with N2 was used to generate structure characteristic product ions for quantitation.
The peak areas of carboplatin were integrated using Analyst 1.6 (AB Sciex, Foster City, Calif.), and the areas were imported into Watson 7.2 (Thermo Fisher Scientific, Waltham, Mass.). Internal standard, tolbutamide, was added to each sample, excluded blank without IS, however IS was not used for quantitation due to inconsistent instrument response of tolbutamide in all analytical runs. […]

[2] = system: human breast cancer cell line MDA-MB-231 s.c. xenograft; assay: Antitumor effect of capecitabine after eribulin treatment in MDA-MB-231 s.c. xenograft model; format: in vivo, nude mice; conditions: capecitabine 540 mg/kg QD8 p.o. after eribulin 1.0 mg/kg QD1 i.v.; MDA-MB-231 xenograft; FIG. 1
Description: Antitumor Effect of Capecitabine after Eribulin Treatment in Human Breast Cancer Cell Line MDA-MB-231 s.c. Xenograft Models
MDA-MB-231 cells were cultured with RPMI 1640 medium containing 10% (v/v) FBS. Cultured tumor cells were suspended in 50% (v/v) BD Matrigel (BD bioscience, San Jose, Calif.) at a density of 10×10^7 cells/mL for s.c. inoculation into nude mice. A 0.1-mL aliquot of the cell suspension was transplanted subcutaneously into the right flank region of mice. Tumor volumes were calculated according to the following formula: (width [mm]^2×length [mm])/2. Tumor weights were calculated according to the following formula: tumor volume (mm^3)×1 (mg/mm^3). In the MDA-MB-231 xenograft model, when the mean tumor volume reached between 100 and 300 mg (1 mm^3=1 mg) on day 1, nude mice were randomly divided into each group. Control (no treatment); capecitabine, 540 mg/kg, QD8, p.o.; or eribulin, 1.0 mg/kg, QD1, i.v. was administered on day 1. In the eribulin group, eribulin-treated mice were randomly divided into two groups. […] The administration volume (0.1 mL/10 g body weight) was calculated based on the body weight before administration. The tumor volume was measured two times per week. […] The data was analyzed by the Dunnett multiple comparison test to compare two groups (GraphPad Prism version 6.02 (GraphPad Software Inc., La Jolla, Calif.)). […]

[3] = eribulin mesylate 3 mg/kg i.v., carboplatin 100 mg/kg i.v. on day 15

Structure (SMILES) | Concentration of Carboplatin in MDA-MB-231 Tumor, AUC (0-8) ([1]; Eribulin pretreatment (eribulin mesylate 3 mg/kg i.v. single dose), carboplatin 100 mg/kg i.v. on day 15) [ng·h/g] | Concentration of Carboplatin in MDA-MB-231 Tumor, AUC (0-8) ([1]; Vehicle B group (no eribulin), carboplatin 100 mg/kg i.v.) [ng·h/g] | AUC (0-8) of carboplatin in tumor, eribulin pretreatment group relative to Vehicle B group [1, 3] | Cmax of carboplatin in tumor, eribulin pretreatment group relative to Vehicle B group [1, 3] | exposure of carboplatin in tumors ([1]; eribulin pretreatment group mice, Table 1, FIG. 4) | antitumor activity of capecitabine with eribulin pretreatment compared with that without pretreatment [2]
N.N.O=C([O-])C1(C(=O)[O-])CCC1.[Pt+2] [Carboplatin, carboplatin] | 50504.02 | 36864.98 | about 1.37 fold | about 2.20 fold | high exposure | 
CCCCCOC(=O)Nc1nc(=O)n([C@@H]2O[C@H](C)[C@@H](O)[C@H]2O)cc1F [capecitabine] |  |  |  |  |  | significantly enhanced
